Common to all, as to experiment: MST binding assay, GLUT3 variant
What all share (details): read-out: Kd of SA47

Experiment [1] deals with T1, GLUT3 E378A (Homo sapiens, UniProt P11169, E378A/N43T).
T1 construct: His10 (N); made in house; host or cells: Sf9 insect cells (baculovirus)
T1 sequence (P11169 1-496 N43T/E378A): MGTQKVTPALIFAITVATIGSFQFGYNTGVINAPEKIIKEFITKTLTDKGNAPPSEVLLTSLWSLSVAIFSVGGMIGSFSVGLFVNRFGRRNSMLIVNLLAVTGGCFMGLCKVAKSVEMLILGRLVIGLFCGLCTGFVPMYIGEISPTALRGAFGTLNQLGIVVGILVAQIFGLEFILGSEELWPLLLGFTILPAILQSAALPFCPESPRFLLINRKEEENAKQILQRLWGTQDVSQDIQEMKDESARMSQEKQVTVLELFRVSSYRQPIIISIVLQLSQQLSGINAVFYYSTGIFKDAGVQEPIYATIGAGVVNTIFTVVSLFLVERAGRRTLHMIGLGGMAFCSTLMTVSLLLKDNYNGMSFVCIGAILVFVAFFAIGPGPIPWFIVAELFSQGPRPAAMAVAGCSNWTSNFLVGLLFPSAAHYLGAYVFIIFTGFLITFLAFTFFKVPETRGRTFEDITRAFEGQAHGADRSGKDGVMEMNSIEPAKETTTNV
The procedure: (§1) All mutants were generated by standard PCR-based strategy.
(§2) Inhibitors with serial dilutions were mixed with indicated protein. […] MST analyses were conducted on a Monolith NT. […] The MST data was analyzed by Monolith NT.115.

Experiment [2] deals with T2, GLUT3 F289A (Homo sapiens, UniProt P11169, F289A/N43T).
T2 construct: His10 (N); made in house; host or cells: Sf9 insect cells (baculovirus)
T2 sequence (P11169 1-496 N43T/F289A): T1 sequence (P11169 1-496 N43T/E378A) with F289A, A378E
How it is done: as §1, §2

Experiment [3] has as its target T3, GLUT3 N315A (Homo sapiens, UniProt P11169, N315A/N43T).
T3 construct: His10 (N); made in house; host or cells: Sf9 insect cells (baculovirus)
T3 sequence (P11169 1-496 N43T/N315A): T1 sequence (P11169 1-496 N43T/E378A) with N315A, A378E
How it is done: as §1, §2

The target of experiment [4] is T4, GLUT3 N32A (Homo sapiens, UniProt P11169, N32A/N43T).
T4 construct: His10 (N); made in house; host or cells: Sf9 insect cells (baculovirus)
T4 sequence (P11169 1-496 N32A/N43T): T1 sequence (P11169 1-496 N43T/E378A) with N32A, A378E
The procedure: as §1, §2

The target in experiment [5] is T5, GLUT3 Q159A (Homo sapiens, UniProt P11169, N43T/Q159A).
T5 construct: His10 (N); made in house; host or cells: Sf9 insect cells (baculovirus)
T5 sequence (P11169 1-496 N43T/Q159A): T1 sequence (P11169 1-496 N43T/E378A) with Q159A, A378E
The procedure: as §1, §2

Each structure is given as a SMILES string. Residue numbers refer to the chain shown, from its start.

What is called Kd is the concentration at which binding is half-saturated. As for `COC(=O)CCNCc1ccccc1-n1ncc2c(N3CCN(c4cc(F)ccc4OC)CC3)ncnc21` [SA47], the dissociation constant (Kd) stood at 1100 ± 100 nM in experiment [1]; 164 ± 67 nM in experiment [2]; 9500 ± 2200 nM in experiment [3]; 941 ± 213 nM in experiment [4]; 4100 ± 800 nM in experiment [5].
